# Experimental data reported in PubChem BioAssay (NCI).
#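 1) Cells in 96-well plates. 2) Compound, 48 h, 5 concentrations. 3) Linear interpolation between surrounding doses. 4) Unreached endpoint = highest concentration. GI50 = concentration required for 50% inhibition of growth. TGI is the concentration that stops growth completely.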
# Experiments:
# Experiment in all cases: NCI tumour cell line growth inhibition, 48 h
# [1] = system: 786-0 renal
# [2] = system: A498 renal
# [3] = system: A549 NSCLC
# [4] = system: ACHN renal
# [5] = system: BT-549 breast
# [6] = system: CAKI-1 renal
# [7] = system: COLO 205 colon
# [8] = system: DU-145 prostate
# [9] = system: EKVX NSCLC
# [10] = system: HCT-116 colon
# [11] = system: HCT-15 colon
# [12] = system: HL-60(TB) leukemia
# [13] = system: HOP-62 NSCLC
# [14] = system: HOP-92 NSCLC
# [15] = system: HS 578T breast
# [16] = system: HT29 colon
# [17] = system: IGROV1 ovarian
# [18] = system: K-562 leukemia
# [19] = system: LOX IMVI melanoma
# [20] = system: M14 melanoma
# [21] = system: MCF7 breast
# [22] = system: MDA-MB-231 breast
# [23] = system: MDA-MB-435
# [24] = system: MOLT-4 leukemia
# [25] = system: NCI-H226 lung
# [26] = system: NCI-H23 lung
# [27] = system: NCI-H460 lung
# [28] = system: NCI-H522 lung
# [29] = system: NCI/ADR-RES ovarian
# [30] = system: OVCAR-3 ovarian
# [31] = system: OVCAR-4 ovarian
# [32] = system: OVCAR-5 ovarian
# [33] = system: OVCAR-8 ovarian
# [34] = system: PC-3 prostate
# [35] = system: RPMI-8226 leukemia
# [36] = system: RXF 393 renal
# [37] = system: SF-268 CNS
# [38] = system: SF-295 CNS
# [39] = system: SF-539 CNS
# [40] = system: SK-MEL-2 melanoma
# [41] = system: SK-MEL-28 melanoma
# [42] = system: SK-MEL-5 melanoma
# [43] = system: SK-OV-3 ovarian
# [44] = system: SN12C renal
# [45] = system: SNB-19 CNS
# [46] = system: SNB-75 CNS
# [47] = system: SR leukemia
# [48] = system: SW-620 colon
# [49] = system: U251 CNS
# [50] = system: UACC-257 melanoma
# [51] = system: UACC-62 melanoma
# [52] = system: UO-31 renal
structure (smiles),measurement,setting,value
Clc1ccc(-c2nc(-c3ccccc3)cn3ccnc23)cc1,GI50,[1],14 µM
same,TGI,[1],37.3 µM
same,GI50,[2],0.836 µM
same,TGI,[2],16.1 µM
same,GI50,[3],11 µM
same,TGI,[3],29 µM
same,GI50,[4],11.4 µM
same,TGI,[4],26.1 µM
same,GI50,[5],11.3 µM
same,TGI,[5],34.3 µM
same,GI50,[6],1.49 µM
same,TGI,[6],17.7 µM
same,GI50,[7],18.6 µM
same,TGI,[7],> 100 µM
same,GI50,[8],11.9 µM
same,TGI,[8],34.9 µM
same,GI50,[9],10 µM
same,TGI,[9],48.8 µM
same,GI50,[10],6.39 µM
same,TGI,[10],21.5 µM
same,GI50,[11],1.8 µM
same,TGI,[11],18 µM
same,GI50,[12],5.05 µM
same,TGI,[12],> 100 µM
same,GI50,[13],16.1 µM
same,TGI,[13],52.5 µM
same,GI50,[14],11.1 µM
same,TGI,[14],32.7 µM
same,TGI,[15],17 µM
same,GI50,[16],7.45 µM
same,TGI,[16],56.7 µM
same,GI50,[17],15.5 µM
same,TGI,[17],> 100 µM
same,GI50,[18],2.65 µM
same,TGI,[18],> 100 µM
same,GI50,[19],5.1 µM
same,TGI,[19],19.5 µM
same,GI50,[20],10.6 µM
same,TGI,[20],27.4 µM
same,GI50,[21],7.16 µM
same,TGI,[21],> 100 µM
same,GI50,[22],12.3 µM
same,TGI,[22],55.5 µM
same,GI50,[23],1.43 µM
same,TGI,[23],7.52 µM
same,GI50,[24],5.89 µM
same,TGI,[24],> 100 µM
same,GI50,[25],74.7 µM
same,TGI,[25],> 100 µM
same,GI50,[26],12.5 µM
same,TGI,[26],36.4 µM
same,GI50,[27],20.2 µM
same,TGI,[27],> 100 µM
same,GI50,[28],> 100 µM
same,TGI,[28],> 100 µM
same,GI50,[29],6.53 µM
same,TGI,[29],25.9 µM
same,GI50,[30],1.82 µM
same,TGI,[30],16.8 µM
same,GI50,[31],14.6 µM
same,TGI,[31],51.3 µM
same,GI50,[32],15.7 µM
same,TGI,[32],44.7 µM
same,GI50,[33],20.6 µM
same,TGI,[33],57.2 µM
same,GI50,[34],14.2 µM
same,TGI,[34],53.7 µM
same,GI50,[35],3.44 µM
same,TGI,[35],31.2 µM
same,GI50,[36],2.72 µM
same,TGI,[36],28.6 µM
same,GI50,[37],10.6 µM
same,TGI,[37],33 µM
same,GI50,[38],3.1 µM
same,TGI,[38],16.7 µM
same,GI50,[39],11.7 µM
same,TGI,[39],31.8 µM
same,GI50,[40],53.4 µM
same,TGI,[40],> 100 µM
same,GI50,[41],14.9 µM
same,TGI,[41],58.3 µM
same,GI50,[42],7.3 µM
same,TGI,[42],27.2 µM
same,GI50,[43],32 µM
same,TGI,[43],> 100 µM
same,GI50,[44],21.3 µM
same,TGI,[44],> 100 µM
same,GI50,[45],25.6 µM
same,TGI,[45],> 100 µM
same,GI50,[46],13 µM
same,TGI,[46],72 µM
same,GI50,[47],0.627 µM
same,TGI,[47],> 100 µM
same,GI50,[48],4.75 µM
same,TGI,[48],41.1 µM
same,GI50,[49],6.61 µM
same,TGI,[49],19.9 µM
same,GI50,[50],20 µM
same,TGI,[50],46.5 µM
same,GI50,[51],17.7 µM
same,TGI,[51],70 µM
same,GI50,[52],20.2 µM
same,TGI,[52],> 100 µM
